Test results taken from US20240182472A1, “INDAZOLE PYRIDONE COMPOUNDS AND USES THEREOF” (Bluejay Therapeutics, Inc., priority 2022, published 2024).

How the values were obtained:
HBV S-antigen secretion = assay: HBsAg assay (HepG2 HBV S-antigen secretion biological assay); assay type: cell-based; conditions: Hepatitis B virus, HepG2.2.15, 72 h, read-out: EC50, HBV S-antigen secretion
Procedure: HepG2.2.15 cells were grown in flasks microscopically and seeded into 96-well plates at a concentration of 6.0×10^4 cells/well and incubated at 37° C., 5% CO2 overnight.
Source plate preparation. The stock concentration of reference compound and test compounds is 20 mM. Firstly, manually diluted the compound to obtain the first concentration points of 10 μM and 200 μM, respectively. Then a 3-fold, 8 points serial dilution is performed to obtain the 200× source plate.
Source plate compounds were pipetted as follows: 3 μL 200× source plate compounds into sterile 2 mL 96 well plate which contain 297 μL 2% FBS Medium, mix well and transfer 100 μL/well to corresponding cell culture plates. Therefore, the test conditions of the final compounds is 1 μM initiation, 3-fold serial dilution, and 8 concentration points in duplicate.
Incubate the cells at 37° C., 5% CO2 for three days.
24 hours post-seeding, the cells were treated with 200 μl/well of media containing serially diluted compounds in DMSO. DMSO alone was used as the no drug control. The final DMSO concentration in all wells was 0.5%.
The HBsAg kit (Auto Biology-CL 0310) was used to determine the level of secreted HBVsAg. The HBSAg assay was performed as follows: • a) Blance the ELISA kit at room temperature for 30 minutes. • b) Add 50 μL standard solution, sample, positive and negative control to each well of the microplate in the kit. • c) Add 50 μL HBsAg enzyme conjugate to each well. • d) Attach the plate membrane, oscillate for 60 seconds, and incubate at 37° C. for 60 minutes. • e) Add 350 μL washing buffer to each well, shake slightly, discard liquid, repeat 6 times. Then pat 5 times on an absorbent paper towel to dry the hole. • f) Add 50 μL mixture of reagent A and B to each well. Oscillate the microplate for 10 seconds. • g) Cover the plate membrane and incubate at room temperature for 10 minutes. Read the luminescent signal using Biotek-Synergy 2.
Compounds inhibition against HBsAg at different concentrations are calculated by the following formula:
Inhibition %=(1−value of sample/ave. value of control)×100
50% effective concentrations (EC50) and were calculated with the GraphPad Prism software.

[1] = In vivo pharmacokinetic study, oral, plasma and liver, rat; parameters: species or system Sprague Dawley rats; conditions: for Observed level of "active metabolite" AUC0→last, Liver / Observed level of "active metabolite" AUC0→last, Plasma: active metabolite I.6 released after oral prodrug 32 mpk, Sprague-Dawley rats, n = 3; for concentrations of the dosed prodrug itself in plasma and tissue: single PO administration at 32 mg/kg in male SD rats, PK parameters not determined
Procedure: The compounds of this invention were tested orally administered in a formulation of 25% PEG 400: 10% solutol: 65% water with a 5 mL/Kg solution across species of CD-1 mice, C57BL/J6 mice, or Sprague Dawley rats following IACUC guidelines. The rat PK of Compound I.9 and Compound I.10 PO dose of 32 mpk exemplifies the methodology used across species.
The purpose of this rat PK study was to determine the pharmacokinetics of Compound I.9, Compound I.6 and Compound I.10 in plasma following oral gavage administration of Compound I.9 and Compound I.10 to male SD rats. For PO groups, the liver and plasma concentration were measured at 1, 2, 6 and 10 h post-dose. Concentrations of Compound I.9, Compound I.6 and Compound I.10 in plasma and tissue samples were determined by a liquid chromatography tandem mass spectrometry (LC-MS/MS) method. Oral (PO) Dose—Groups 1 and 2 Compound I.9 was prepared as a clear solution in 25% PEG400+10% Solutol+65% water (Adjust the final pH to 7˜8). Groups 3 and 4 Compound I.10 was prepared as a homogeneous suspension in 25% PEG400+10% Solutol+65% water (Adjust the final pH to 7˜8). Blood (about 0.2 mL) was collected at each time point via jugular vein puncture from each study animal into a tube A. The following 4-mix stabilizer for esterase inhibition was added into a pre-chilled commercial tube B containing potassium (K2) EDTA (0.85-1.15 mg) in advance. Then the blood in the tube A will be accurately transferred (4-mix stabilizer: blood, 1:10 (v:v)) into the tube B and placed on wet ice until centrifugation.
The following 4-mix stabilizer was added into the cold homogenizing buffer (MeOH/15 mM PBS 1:2) in advance. Then each tissue was weighed and added the cold homogenizing buffer with stabilizer at the ratio of 1:9 (1 g tissue with 9 mL buffer), then homogenized on wet ice. The tissue homogenate was kept at −60° C. or lower until LC-MS/MS analysis.
Bioanalytical Analysis The concentrations of Compound I.9, Compound I.6 and Compound I.10 in plasma and tissue were determined by using an LC-MS/MS method. Instrumentation and conditions for
Compound I.9, Compound I.10 and Compound I.6 in plasma and tissue homogenate. • LC parameters • Equipment: ACQUITY UPLC System • Analytical column: ACQUITY UPLC HSS T3 1.8 μm 2.1×50 mm • Inject volume: 5 μL for plasma; 3.5 μL for tissue homogenate • Mobile phase A: 0.1% FA & 2 mmol/L HCOONH4 in water/ACN (v/v, 95:5) • Mobile phase B: 0.1% FA & 2 mmol/L HCOONH4 in ACN/water (v/v, 95:5) • Elution Mode: Gradient
• Mass spectrometer: Triple Quad 6500 plus • Ionization mode: ESI (+) • Detective mode: MRM

Row | SMILES | EC50 (HBV S-antigen secretion) [nM] | Observed level of "active metabolite" AUC0→last, Liver [1] [ng·h/g] | Observed level of "active metabolite" AUC0→last, Plasma [1] [ng·h/g] | concentrations of the dosed prodrug itself in plasma and tissue [1]
1 | CC(C)(C)[C@@H]1Cn2nc3c(OCCCCCC(=O)O)cccc3c2-c2cc(=O)c(C(=O)O)cn21 [I.1, (R)-6-(tert-butyl)-10-((5-carboxypentyl)oxy)-2-oxo-6,7-dihydro-2H-pyrido[2′,1′:3,4]pyrazino[1,2-b]indazole-3-carboxylic acid] | 25.5 | – | – | –
2 | CCOC(=O)CCCCCCOc1cccc2c3n(nc12)C[C@@H](C(C)(C)C)n1cc(C(=O)O)c(=O)cc1-3 [I.3, (R)-6-(tert-butyl)-10-((7-ethoxy-7-oxoheptyl)oxy)-2-oxo-6,7-dihydro-2H-pyrido[2′,1′:3,4]pyrazino[1,2-b]indazole-3-carboxylic acid] | 11.8 | – | – | –
3 | CCCCCCCOC(=O)CCCCCCOc1cccc2c3n(nc12)C[C@@H](C(C)(C)C)n1cc(C(=O)O)c(=O)cc1-3 [I.4, (R)-6-(tert-butyl)-10-((7-(heptyloxy)-7-oxoheptyl)oxy)-2-oxo-6,7-dihydro-2H-pyrido[2′,1′:3,4]pyrazino[1,2-b]indazole-3-carboxylic acid] | 14 | – | – | –
4 | CCOC(=O)CCCCCCCOc1cccc2c3n(nc12)C[C@@H](C(C)(C)C)n1cc(C(=O)O)c(=O)cc1-3 [I.7, (R)-6-(tert-butyl)-10-((8-ethoxy-8-oxooctyl)oxy)-2-oxo-6,7-dihydro-2H-pyrido[2′,1′:3,4]pyrazino[1,2-b]indazole-3-carboxylic acid] | 7.1 | – | – | –
5 | CC(C)OC(=O)CCCCCCCOc1cccc2c3n(nc12)C[C@@H](C(C)(C)C)n1cc(C(=O)O)c(=O)cc1-3 [I.9, (R)-6-(tert-butyl)-10-((8-isopropoxy-8-oxooctyl)oxy)-2-oxo-6,7-dihydro-2H-pyrido[2′,1′:3,4]pyrazino[1,2-b]indazole-3-carboxylic acid] | 5.3 ± 0.9 | 29367 | 290 | most concentrations were below the lower limit of quantitation
6 | CCCCOC(=O)CCCCCCCOc1cccc2c3n(nc12)C[C@@H](C(C)(C)C)n1cc(C(=O)O)c(=O)cc1-3 [I.10, (R)-10-((8-butoxy-8-oxooctyl)oxy)-6-(tert-butyl)-2-oxo-6,7-dihydro-2H-pyrido[2′,1′:3,4]pyrazino[1,2-b]indazole-3-carboxylic acid] | 4 ± 0.8 | 19444 | 146 | most concentrations were below the lower limit of quantitation
7 | CC(C)(C)[C@@H]1Cn2nc3c(OCCCCCCCCC(=O)O)cccc3c2-c2cc(=O)c(C(=O)O)cn21 [I.13, (R)-6-(tert-butyl)-10-((8-carboxyoctyl)oxy)-2-oxo-6,7-dihydro-2H-pyrido[2′,1′:3,4]pyrazino[1,2-b]indazole-3-carboxylic acid] | 1.2 ± 0.5 | – | – | –
